Measured values from US8808702B2, “Sulfide, sulfoxide and sulfone chalcone analogues, derivatives thereof and therapeutic uses thereof” (Temple University-of the Commonwealth System of Higher …, priority 2006, dated 2014).
Read-outs that look alike come from different tables or passages of the source.

How the values were obtained:
[1] = tested on: K562 (chronic myelogenous leukaemia); test: Effect of compounds on tumor cell lines (assay of Latham et al.), K562; format: cell-based; conditions: Table 1, K562 cells, examined 96 hours after treatment, 1 μM to 100 μM in DMSO, read-out: K 562 potency (IC50)
Method: (§1) The effect of the compounds of the invention on tumor cells was determined by the assay described by Latham et al., Oncogene 12:827-837 (1996). Tumor cells K562 (chronic myelogenous leukaemia) or DU145 (prostate cancer) were plated in 12-well dishes at a cell density of 2.5×10^4 cells well. The plated cells were treated 24 hours later with a compound of the invention dissolved in DMSO at multiple concentrations ranging from 1 μM to 100 μM. The plates were examined 96 hours later under an inverted microscope, Olympus CK-2 using an 10× objective, and compound activity was noted by physical observation. When necessary, the total number of viable cells was determined by trypsinizing the wells and counting the number of viable cells, as determined by trypan blue exclusion, using a hemacytometer.
(§2) The representative compounds listed in Tables 1-5 are shown by way of illustration, and are not intended to limit the scope of the invention. The compounds are prepared and tested by methods based on those described above, except that the compound of Table 5 was dissolved in DMSO at multiple concentrations ranging from 0.1 μM to 100 μM

[2] = tested on: DU145 (prostate cancer); test: Effect of compounds on tumor cell lines (assay of Latham et al.), DU145; format: cell-based; conditions: Table 1, DU145 cells, examined 96 hours after treatment, 1 μM to 100 μM in DMSO, read-out: DU 145 potency (IC50)
Method: as §1, §2

Structure (SMILES) | IC50 [1] | IC50 [2] | IC50 ([1]; Homo sapiens) | IC50 ([2]; Homo sapiens, DU-145)
O=C(C(=Cc1ccc([N+](=O)[O-])c(O)c1)Sc1c(F)c(F)c(F)c(F)c1F)c1ccc(Br)cc1 [Example 1] | 1 to 10 µM | 10 to 25 µM | – | –
O=C(C(=Cc1ccc(O)c([N+](=O)[O-])c1)Sc1c(F)c(F)c(F)c(F)c1F)c1ccc(Br)cc1 [Example 2] | 10 to 25 µM | 10 to 25 µM | – | –
O=C(C(=Cc1cc(Cl)cc(Cl)c1Cl)Sc1ccccc1Br)c1ccc(Cl)cc1 [Example 3] | 50 to 100 µM | 25 to 50 µM | – | –
O=C(C(=Cc1c(O)cc(O)cc1O)Sc1ccccc1Br)c1ccc(Br)cc1 [Example 4] | > 100 µM | > 100 µM | – | –
O=C(C(=Cc1c(O)cc(O)cc1O)Sc1ccccc1Br)c1ccc(Cl)cc1 [Example 5] | > 100 µM | > 100 µM | – | –
O=C(C(=Cc1ccc(O)cc1O)Sc1ccccc1Br)c1ccc(Br)cc1 [Example 6] | 50 to 100 µM | 50 to 100 µM | – | –
O=C(C(=Cc1ccc(O)cc1O)Sc1ccccc1Br)c1ccc(Cl)cc1 [Example 7] | 50 to 100 µM | 50 to 100 µM | – | –
O=C(C(=Cc1ccccc1O)Sc1ccccc1Br)c1ccc(Br)cc1 [Example 8] | 50 to 100 µM | 50 to 100 µM | – | –
O=C(C(=Cc1ccc(Br)cc1)Sc1ccccc1Br)c1ccc(Br)cc1 [Example 9] | 1 to 10 µM | 1 to 10 µM | – | –
O=C(C(=Cc1ccc(O)c([N+](=O)[O-])c1)Sc1ccccc1Br)c1ccc(Br)cc1 [Example 10] | 10 to 25 µM | 1 to 10 µM | – | –
O=C(C(=Cc1ccc(O)c([N+](=O)[O-])c1)Sc1ccccc1Br)c1ccc(Cl)cc1 [Example 11] | 10 to 25 µM | 25 to 50 µM | – | –
CN(C)c1ccc(C=C(Sc2ccccc2Br)C(=O)c2ccc(Br)cc2)cc1 [Example 12] | > 100 µM | > 100 µM | – | –
O=C(C(=Cc1c(O)cc(O)cc1O)Sc1ccc(Br)cc1)c1ccc(Cl)cc1 [Example 13] | 50 to 100 µM | 25 to 50 µM | – | –
COc1cc(OC)c(C=C(Sc2ccc(Br)cc2)C(=O)c2ccc(Cl)cc2)c(OC)c1 [Example 14] | 50 to 100 µM | 50 to 100 µM | – | –
O=C(/C(=C\c1ccc(Cl)cc1Cl)Sc1ccc(Br)cc1)c1ccc(Br)cc1 [Example 15, (E)-1-(4-Bromophenyl)-2-(4-bromophenylthio)-3-(2,4-dichlorophenyl)-prop-2-en-1-one] | – | – | 1 to 10 µM | 1 to 10 µM
O=C(C(=Cc1ccc(O)cc1O)Sc1ccc(Br)cc1)c1ccc(Cl)cc1 [Example 16] | 25 to 50 µM | 50 to 100 µM | – | –
O=C(C(=Cc1ccc(F)cc1F)Sc1ccc(Br)cc1)c1ccc(Br)cc1 [Example 17] | 1 to 10 µM | 1 to 10 µM | – | –
O=C(C(=Cc1ccc(F)cc1F)Sc1ccc(Br)cc1)c1ccc(Cl)cc1 [Example 18] | 1 to 10 µM | 1 to 10 µM | – | –
Cc1ccc(C)c(C=C(Sc2ccc(Br)cc2)C(=O)c2ccc(Cl)cc2)c1 [Example 19] | 10 to 25 µM | 10 to 25 µM | – | –
Nc1c(Br)cc(Br)cc1C=C(Sc1ccc(Br)cc1)C(=O)c1ccc(Br)cc1 [Example 20] | > 100 µM | > 100 µM | – | –
O=C(C(=Cc1ccccc1OCc1ccccc1)Sc1ccc(Br)cc1)c1ccc(Cl)cc1 [Example 21] | 10 to 25 µM | 10 to 25 µM | – | –
O=C(C(=Cc1ccc(F)cc1Cl)Sc1ccc(Br)cc1)c1ccc(Br)cc1 [Example 22] | 1 to 10 µM | 1 to 10 µM | – | –
COc1ccc(C=C(Sc2ccc(Br)cc2)C(=O)c2ccc(Br)cc2)c(F)c1 [Example 23] | 1 to 10 µM | 10 to 25 µM | – | –
O=C(C(=Cc1ccccc1F)Sc1ccc(Br)cc1)c1ccc(Cl)cc1 [Example 24] | 1 to 10 µM | 10 to 25 µM | – | –
COc1ccccc1C=C(Sc1ccc(Br)cc1)C(=O)c1ccc(Cl)cc1 [Example 25] | 10 to 25 µM | 10 to 25 µM | – | –
Cc1cc(C)cc(C=C(Sc2ccc(Br)cc2)C(=O)c2ccc(Cl)cc2)c1 [Example 26] | 1 to 10 µM | 10 to 25 µM | – | –
O=C(C(=Cc1ccc(O)c(Br)c1)Sc1ccc(Br)cc1)c1c(F)c(F)c(F)c(F)c1F [Example 27] | 1 to 10 µM | 1 to 10 µM | – | –
O=C(O)c1cc(C=C(Sc2ccc(Br)cc2)C(=O)c2c(F)c(F)c(F)c(F)c2F)ccc1O [Example 28] | 25 to 50 µM | 25 to 50 µM | – | –
O=C(C(=Cc1ccc([N+](=O)[O-])c(O)c1)Sc1ccc(Br)cc1)c1c(F)c(F)c(F)c(F)c1F [Example 30] | 1 to 10 µM | 1 to 10 µM | – | –
O=C(C(=Cc1c[nH]c2ccccc12)Sc1ccc(Br)cc1)c1ccc(Br)cc1 [Example 31] | 1 to 10 µM | 1 to 10 µM | – | –
